Laboratory results taken from paper PMC11853949 (European journal of medicinal chemistry, 2025).

Test system: Vγ9Vδ2 T cells exposed to compound-loaded K562 cells
Assay: Vγ9Vδ2 T cell interferon γ ELISA with compound-loaded K562 cells
Format: cell-based, human
Details: versus aryl amidate range 110-230 nM

In the case of `C/C(=C\CCP(=O)(OCOC(=O)c1cn(-c2ccc(F)cc2)nn1)Oc1ccccc1)CO` (stereo not shown) [Compound 25b, (E)-(((5-Hydroxy-4-methylpent-3-en-1-yl)(phenoxy)phosphoryl)oxy)methyl-1-(4-fluorophenyl)-1H-1,2,3-triazole-4-carboxylate], the “fold more active than aryl amidates (1 hour cytokine EC50)” value is reported as “more than 100 fold”.
